Bounds are passed on as bounds.

For this test, the system named is Huh-7. The test can be described thus: Antiproliferative activity against human Huh-7 cells after 24 hrs by Cell Titer Glo assay. The format is functional, cell-based. To be noted: Huh-7, 24 h. A general note: In ATP-based viability assays light output follows the ATP content of the culture.

As for `C#CC(=O)N(c1cccc(Cl)c1)C(C(=O)NCc1ccccc1)c1cccc(OCC(=O)OC)c1` (stereo not drawn), the half-maximal effective concentration (EC50) amounted to 100 nM.
The same measure for `C#CC(=O)N(C1(C(=O)NCc2ccccc2)CCOCC1)C1(c2ccccc2)CC1`: at most 100 nM; for `C#CC(=O)N(c1cc(Cl)ccc1F)C(C(=O)NCc1ccccc1)c1ccc(N)cc1` (stereo not drawn): at most 100 nM; for `C#CC(=O)N(c1cccc(NC(C)=O)c1)C(C(=O)NCc1ccccc1)c1ccc(N)cc1` (stereo not drawn): 2000 nM.
In the case of `C#CC(=O)N(c1cccc(Cl)c1)C(C(=O)NCc1ccccc1)c1ccccc1F` (stereo not drawn), the EC50 was at most 100 nM.
The result for `C#CC(=O)N(c1ccc2ncsc2c1)C(C(=O)NCc1ccccc1)c1ccccc1` (stereo not drawn) reads 100 nM; that for `C#CC(=O)N(c1cccc(O)c1)C(C(=O)NCc1ccccc1)c1ccc(N)cc1` (stereo not drawn), 2000 nM; that for `C#CC(=O)N(c1ccc(OC)c(Cl)c1)C(C(=O)NCc1ccccc1)c1ccc(N)cc1` (stereo not drawn), at most 100 nM.
The result for `C#CC(=O)N(c1ccc2c(c1)OC(F)(F)O2)C(C(=O)NCc1ccccc1)c1ccccc1` (stereo not drawn) reads at most 100 nM.
The same measure for `O=C(C#CCO)N(c1cccc(Cl)c1)C1(C(=O)NCc2ccccc2)CCOCC1`: over 10000 nM; for `C#CC(=O)N(c1cccc(C(=O)OC)c1)C(C(=O)NCc1ccccc1)c1cccc(N)c1` (stereo not drawn): at most 100 nM.
In the case of `C#CC(=O)N(c1cccc(Cl)c1)C(C(=O)NCc1ccccc1)c1cccs1` (stereo not drawn), the 50% effective concentration (EC50) was at most 100 nM.
The result for `C#CC(=O)N(c1cccc(C(=O)OC)c1)C(C(=O)NCc1ccccc1)c1ccccc1` (stereo not drawn) reads at most 100 nM.
The same measure for `CC#CC(=O)N(c1ccc2c(cnn2C)c1)C1(C(=O)NCc2ccccc2)CCCOC1` (stereo not drawn): 2000 nM.
The result for `C#CC(=O)N(c1cccc(-c2ccn(C)n2)c1)C1(C(=O)NCc2ccccc2)CCOCC1` reads 100 nM; that for `C#CC(=O)N(c1ccc2c(c1)C(=O)OC2)C(C(=O)NCc1ccccc1)c1ccccc1` (stereo not drawn), at most 100 nM; that for `C#CC(=O)N(c1ccc(Cl)cc1)C(C(=O)NCc1ccccc1)c1ccc(N)cc1` (stereo not drawn), at most 100 nM.
Compound `CC#CC(=O)N(c1ccc2c(cnn2C)c1)C1(C(=O)NCc2ccccc2)CCOCC1` gave an EC50 of over 10000 nM.
The same measure for `CC#CC(=O)N(c1ccc(Cl)c(Cl)c1)C(C(=O)NCc1ccccc1)c1ccccc1` (stereo not drawn): over 10000 nM; for `C#CC(=O)N(c1cccc2c1OCO2)C1(C(=O)NCc2ccccc2)CCOCC1`: at most 100 nM; for `C#CC(=O)N(c1ccc(NS(C)(=O)=O)cc1)C(C(=O)NCc1ccccc1)c1ccc(N)cc1` (stereo not drawn): 2000 nM.
The same measure for `C#CC(=O)N(c1cccc(OC)c1)C(C(=O)NCc1ccccc1)c1ccc(N)cc1` (stereo not drawn): at most 100 nM; for `C#CC(=O)N(c1ccc(O)cc1)C(C(=O)NCc1ccccc1)c1ccc(N)cc1` (stereo not drawn): 2000 nM.
The result for `C#CC(=O)N(c1ccc2nsnc2c1)C(C(=O)NCc1ccccc1)c1ccccc1` (stereo not drawn) reads at most 100 nM.
`C#CC(=O)N(c1ccc(S(N)(=O)=O)cc1)C(C(=O)NCc1ccccc1)c1ccc(N)cc1` (stereo not drawn): the EC50 is over 10000 nM.
In turn, `C#CC(=O)N(c1ccc2scnc2c1)C(C(=O)NCc1ccccc1)c1ccccc1` (stereo not drawn) displayed an EC50 of at most 100 nM.
Compound `C#CC(=O)N(c1cccc(Cl)c1)C(C(=O)NCc1ccccc1)c1ccccc1` (stereo not drawn) gave an EC50 of at most 100 nM.
The same measure for `COc1ccc(N(C(=O)C#CCO)C(C(=O)NCCc2ccccc2)c2cccs2)cc1Cl` (stereo not drawn): 2000 nM; for `C#CC(=O)N(c1cccn2cnnc12)C(C(=O)NCc1ccccc1)c1ccccc1` (stereo not drawn): 100 nM.
`CC#CC(=O)N(c1ccc2c(cnn2C)c1)C1(C(=O)NCc2ccccc2)CCCC(C(=O)OC)C1` (stereo not drawn) displayed an EC50 of over 10000 nM.
`C#CC(=O)N(c1cccc(C(=O)OC)c1)C(C(=O)NCc1ccccc1)c1cccs1` (stereo not drawn) came in with an EC50 of at most 100 nM.
The same measure for `C#CC(=O)N(c1cccc(Cl)c1)C(C(=O)NCc1ccccc1)C1CCC(C(=O)OC)CC1` (stereo not drawn): 100 nM; for `C#CC(=O)N(c1cccc(N)c1)C(C(=O)NCc1ccccc1)c1ccc(N)cc1` (stereo not drawn): 500 nM.
The result for `C#CC(=O)N(c1cccc(-c2cc[nH]n2)c1)C1(C(=O)NCc2ccccc2)CCOCC1` reads 100 nM; that for `Cn1ncc2cc(N(C(=O)C#CCO)C3(C(=O)NCc4ccccc4)CCOCC3)ccc21`, over 10000 nM; that for `C#CC(=O)N(c1ccc(N(C)C)cc1)C1(C(=O)NCc2ccccc2)CCOCC1`, 100 nM.
In turn, `C#CC(=O)N(c1ccc(Cl)cc1)C(C(=O)NCc1ccccc1)c1cccc(N)c1` (stereo not drawn) showed an EC50 of at most 100 nM.
Turning to `C#CC(=O)N(c1cccc(Cl)c1)C(C(=O)NCc1ccccc1)c1ccc(F)cc1` (stereo not drawn), the concentration for a half-maximal effect (EC50) was at most 100 nM.
Consider `C#CC(=O)N(c1cccc(Cl)c1F)C(C(=O)NCc1ccccc1)c1ccccc1` (stereo not drawn), for which the midpoint of the response, the EC50, lay at 100 nM.
In turn, `C#CC(=O)N(c1cccc2nonc12)C(C(=O)NCc1ccccc1)c1ccccc1` (stereo not drawn) displayed a half-maximal effective concentration (EC50) of 100 nM.
The result for `C#CC(=O)N(c1cccc2c1CCC2=O)C1(C(=O)NCc2ccccc2)CCOCC1` reads at most 100 nM; that for `C#CC(=O)N(c1cccc2c1OCO2)C(C(=O)NCc1ccccc1)c1ccccc1` (stereo not drawn), 100 nM; that for `C#CC(=O)N(c1cccc(Cl)c1)C(C(=O)NCc1ccc(C#N)cc1)c1ccccc1` (stereo not drawn), at most 100 nM.
In turn, `C#CC(=O)N(c1ccc(C#N)cc1)C(C(=O)NC(C)(C)C)c1ccc(N)cc1` (stereo not drawn) yielded an EC50 of at most 100 nM.
In turn, `C#CC(=O)N(c1cc(Cl)ccc1Cl)C(C(=O)NCc1ccccc1)c1ccccc1` (stereo not drawn) yielded an EC50 of at most 100 nM.
The result for `C#CC(=O)N(c1ccc2c(c1)OCO2)C(C(=O)NCc1ccccc1)c1ccccc1` (stereo not drawn) reads at most 100 nM; that for `O=C(C#CCO)N(c1cc(Cl)ccc1Cl)C1(C(=O)NCc2ccccc2)CCOCC1`, over 10000 nM.
Take `C#CC(=O)N(c1ccc(C#N)cc1)C(C(=O)NCc1ccccc1)c1ccc(N)cc1` (stereo not drawn): the EC50 is at most 100 nM.
The result for `C#CC(=O)N(c1cccc(Cl)c1)C1(C(=O)NCc2ccccc2)CCC(C(=O)OC)CC1` (stereo not drawn) reads at most 100 nM.
The compound `C#CC(=O)N(c1ccc2nncn2c1)C(C(=O)NCc1ccccc1)c1ccccc1` (stereo not drawn) gave an EC50 of 100 nM.
As to `C#CC(=O)N(c1cccc2nsnc12)C(C(=O)NCc1ccccc1)c1ccccc1` (stereo not drawn), the EC50 was at most 100 nM.
As for `C#CC(=O)N(c1cccc(Cl)c1)C(C(=O)NCc1ccccc1)C1CC1` (stereo not drawn), a half-maximal effect (EC50) was put at 100 nM.
Compound `C#CC(=O)N(c1ccc(C(=O)OC)cc1)C(C(=O)NCc1ccccc1)c1ccc(N)cc1` (stereo not drawn) gave an EC50 of at most 100 nM.
As to `C#CC(=O)N(c1ccc(Cl)cc1)C(C(=O)NC(C)(C)C)c1cccc(N)c1` (stereo not drawn), the EC50 was at most 100 nM.
The same measure for `C#CC(=O)N(c1cccc(C(=O)OC)c1)C(C(=O)NCc1ccccc1)c1ccc(N)cc1` (stereo not drawn): at most 100 nM; for `C#CC(=O)N(c1cccc(S(C)(=O)=O)c1)C(C(=O)NCc1ccccc1)c1ccccc1` (stereo not drawn): 100 nM.
In turn, `C#CC(=O)N(c1ccc(S(N)(=O)=O)cc1)C(C(=O)NCc1ccccc1)c1cccc(N)c1` (stereo not drawn) returned a concentration giving a half-maximal response (EC50) of over 10000 nM.
`C#CC(=O)N(c1cccc(Cl)c1)C1(C(=O)NCc2ccccc2)CCC(F)(F)CC1` came in with an EC50 of at most 100 nM.
The result for `C#CC(=O)N(c1cccc(CO)c1)C(C(=O)NCc1ccccc1)c1ccc(N)cc1` (stereo not drawn) reads 2000 nM; that for `C#CC(=O)N(c1ccn(C)c(=O)c1)C(C(=O)NCc1ccccc1)c1ccccc1` (stereo not drawn), 2000 nM.
The same measure for `C#CC(=O)N(c1ccc(OC)c(Cl)c1)C(C(=O)NCc1ccccc1)c1ccccc1` (stereo not drawn): at most 100 nM; for `C#CC(=O)N(c1cccc(Cl)c1)C(C(=O)NCc1ccccc1)c1cccc(CCO)c1` (stereo not drawn): 100 nM.
The result for `C#CC(=O)N(c1cccc(Cl)c1F)C(C(=O)NCc1ccccc1)c1ccc(N)cc1` (stereo not drawn) reads at most 100 nM; that for `C#CC(=O)N(Cc1ccc(C(=O)OC)cc1)C(C)C(=O)NCc1ccccc1` (stereo not drawn), 100 nM; that for `CC#CC(=O)N(c1cccc(Cl)c1)C(C(=O)NCc1ccccc1)c1ccccc1` (stereo not drawn), over 10000 nM.
In turn, `C#CC(=O)N(c1cccc(Cl)c1)C(C(=O)NCc1ccccc1)C1CCOCC1` (stereo not drawn) registered an EC50 of 500 nM. That is a sub-micromolar value.
The same measure for `C#CC(=O)N(c1cccc(C#N)c1)C(C(=O)NCc1ccccc1)c1ccccc1` (stereo not drawn): at most 100 nM; for `C#CC(=O)N(c1cccc(Cl)c1)C(C(=O)NCc1ccccc1)c1ccncc1` (stereo not drawn): 500 nM.
`C#CC(=O)N(c1cccc(F)c1)C(C(=O)NCc1ccccc1)c1ccc(N)cc1` (stereo not drawn) showed an EC50 of 100 nM.
The same measure for `C#CC(=O)N(c1ccc(Cl)c(Cl)c1)C(C(=O)NCc1ccccc1)c1ccc(N)cc1` (stereo not drawn): at most 100 nM; for `C#CC(=O)N(c1cc2c(cc1I)OCO2)C(C(=O)NCc1ccccc1)c1ccccc1` (stereo not drawn): at most 100 nM.
The same measure for `C#CC(=O)N(c1ccccc1N1CCOCC1)C1(C(=O)NCc2ccccc2)CCOCC1`: at most 100 nM.
As for `C#CC(=O)N(c1ccc2c(c1)C(=O)OC2)C1(C(=O)NCc2ccccc2)CCOCC1`, the EC50 was at most 100 nM.
`C#CC(=O)N(Cc1cc[nH]n1)C1(C(=O)NCc2ccccc2)CCOCC1` registered an EC50 of over 10000 nM.
The result for `C#CC(=O)N(c1cccc(Cl)c1)C1(C(=O)NCc2ccccc2)CCCCC1` reads at most 100 nM; that for `C#CC(=O)N(c1cccc2c1CCC2=O)C(C(=O)NCc1ccccc1)c1ccccc1` (stereo not drawn), at most 100 nM.
The result for `C#CC(=O)N(c1ccc(OC)cc1)C(C(=O)NCc1ccccc1)c1ccc(N)cc1` (stereo not drawn) reads at most 100 nM.
The same measure for `C#CC(=O)N(c1cccc(C(N)=O)c1)C(C(=O)NCc1ccccc1)c1ccc(N)cc1` (stereo not drawn): over 10000 nM; for `C#CC(=O)N(c1ccc2c(cnn2C)c1)C(C(=O)NCc1ccccc1)c1ccccc1` (stereo not drawn): at most 100 nM.
The compound `C#CC(=O)N(c1cccc(Cl)c1Cl)C(C(=O)NCc1ccccc1)c1ccccc1` (stereo not drawn) showed an EC50 of at most 100 nM.
As for `C#CC(=O)N(c1cccc(C#N)c1)C(C(=O)NCc1ccccc1)c1ccc(N)cc1` (stereo not drawn), the concentration giving a half-maximal response (EC50) amounted to 100 nM.
The compound `C#CC(=O)N(c1cccc(Cl)c1)[C@]1(C(=O)NCc2ccccc2)CC[C@@H](O)CC1` gave a 50% effective concentration (EC50) of 100 nM.
In turn, `C#CC(=O)N(Cc1cccc(O)c1)C1(C(=O)NCc2ccccc2)CCOCC1` had an EC50 of at most 100 nM.
Turning to `C#CC(=O)N(c1ccc2cnn(C)c2c1)C(C(=O)NCc1ccccc1)c1ccccc1` (stereo not drawn), the EC50 was at most 100 nM.
The same measure for `C#CC(=O)N(c1cc(Cl)ccc1I)C(C(=O)NCc1ccccc1)c1ccccc1` (stereo not drawn): at most 100 nM; for `C#CC(=O)N(c1ccc(CO)cc1)C(C(=O)NCc1ccccc1)c1ccc(N)cc1` (stereo not drawn): 500 nM.
The result for `C#CC(=O)N(c1cccc(Cl)c1)C(C(=O)NCc1ccc(F)cc1)c1ccccc1` (stereo not drawn) reads at most 100 nM; that for `C#CC(=O)N(c1cccc(Cl)c1)C(C(=O)NCc1ccccc1F)c1ccccc1` (stereo not drawn), 100 nM.

By EC50 is commonly meant the concentration at which the effect is half-maximal.
